Data set [1] in a line: in vivo. As to conditions: Sprague-Dawley, rat, po, 5 mg/kg.
Data set [2] is described as follows: in vivo. As to conditions: Sprague-Dawley, rat, iv, 1 mg/kg.
Data set [3] is described as follows: in vivo. The following applies: Sprague-Dawley, rat, po, 5 mg/kg. This is another data set of the same source.
A short description of data set [4]: in vivo. The following applies: Sprague-Dawley, rat, iv, 1 mg/kg. This is another data set of the same source.
A short description of data set [5]: in vivo. The following applies: Sprague-Dawley, rat, iv, 1 mg/kg. The source holds these as a separate data set.
Data set [6] in a line: in vivo. The following applies: Sprague-Dawley, rat, po, 5 mg/kg. The source holds these as a separate data set.
A short description of data set [7]: in vivo. The following applies: Sprague-Dawley, rat, po, 5 mg/kg. The source holds these as a separate data set.
A short description of data set [8]: Oral bioavailability in human in fasting state at 560 mg administered daily. The following applies: in vivo. The data set is classed as ADME, organism-based.
Data set [9] in a line: Oral bioavailability in human in fed state at 560 mg administered daily. The data set is classed as ADME, organism-based. As to conditions: in vivo.
Data set [10] is described as follows: Plasma concentration in ICR mouse at 4.4 mg/kg, po administered as single dose measured at 0.5 hrs by LC-MS/MS analysis. The data set is classed as ADME, organism-based.
A short description of data set [11]: Plasma concentration in ICR mouse at 2.2 mg/kg, po administered as single dose measured at 0.5 hrs by LC-MS/MS analysis. The data set is classed as ADME, organism-based.
Data set [12] in a line: Plasma concentration in ICR mouse at 14.5 mg/kg, po administered as single dose measured at 4 hrs by LC-MS/MS analysis. The data set is classed as ADME, organism-based.
Data set [13] is described as follows: Cmax in ICR mouse plasma at 14.5 mg/kg, po administered as single dose by LC-MS/MS analysis. The data set is classed as ADME, organism-based. On the set-up: dose 14.5 mg/kg, route oral.
Data set [14] can be described thus: Plasma concentration in ICR mouse at 8.9 mg/kg, po administered as single dose measured at 0.5 hrs by LC-MS/MS analysis. The data set is classed as ADME, organism-based.
Data set [15] in a line: Plasma concentration in ICR mouse at […], po administered as single dose measured at 0.5 hrs by LC-MS/MS analysis. The data set is classed as ADME, organism-based.
Data set [16] in a line: Plasma concentration in ICR mouse at 2.9 mg/kg, po administered as single dose measured at 0.5 hrs by LC-MS/MS analysis. The data set is classed as ADME, organism-based.
Data set [17] in a line: Plasma concentration in ICR mouse at 0.7 mg/kg, po administered as single dose measured at 0.5 hrs by LC-MS/MS analysis. The data set is classed as ADME, organism-based.
Data set [18] in a line: Plasma concentration in ICR mouse at 14.5 mg/kg, po administered as single dose measured at 2 hrs by LC-MS/MS analysis. The data set is classed as ADME, organism-based.
A short description of data set [19]: Plasma concentration in ICR mouse at 17.7 mg/kg, po administered as single dose measured at 0.5 hrs by LC-MS/MS analysis. The data set is classed as ADME, organism-based.
Data set [20] is described as follows: Plasma concentration in ICR mouse at 1.4 mg/kg, po administered as single dose measured at 0.5 hrs by LC-MS/MS analysis. The data set is classed as ADME, organism-based.

Broadly, the bioavailability is dose-corrected exposure relative to a reference, in per cent. Higher therefore signals much systemic uptake. As a reminder, the half-life is the time needed for the level to fall by half in the phase considered. By AUC is commonly meant concentration integrated over time. Low readings indicate low exposure, high ones high exposure. As usually defined, the Vd is the apparent volume that relates the amount in the body to the concentration in plasma or blood. A word on the clearance: it is the rate of elimination divided by the concentration. A high value points to efficient removal. A word on the Tmax: it is the time at which the peak concentration occurs. Usually Cmax stands for the maximum level reached in the sampled fluid or tissue. `C=CC(=O)Nc1ccccc1C1CCNc2c(C(N)=O)c(-c3ccc(OCC4CC4)cc3)nn21` (stereo not given): the bioavailability in “in vivo [1]” stood at 34%. This compound also gave a half-life in “in vivo [2]” of 24 min. Further, the AUC in “in vivo [3]” worked out at 344 ng·h/mL. In addition, the Vd in “in vivo [4]” was 1.01 L/kg. In addition, in the data set “in vivo [5]”, the clearance is 82.3 mL/min/kg. Besides, the Tmax in “in vivo [6]” stood at 19.8 min. The highest level in the data set “in vivo [7]” (Cmax) was 202 ng/mL.
In the data set “in vivo [1]”, `C=CC(=O)N1CC(C2CCNc3c(C(N)=O)c(-c4ccc(Oc5ccccc5)cc4)nn32)C1` (stereo not given) yielded a bioavailability of 8.6%. In the data set “in vivo [2]”, this compound gave a half-life of 15.6 min. In addition, the area under the curve (AUC) in “in vivo [3]” was determined as 50.3 ng·h/mL. In addition, the Vd in the data set “in vivo [4]” came to 2.85 L/kg. This compound also gave a clearance in “in vivo [5]” of 169 mL/min/kg. Also, in the data set “in vivo [6]”, the Tmax amounted to 140 min. This compound displayed a maximum concentration (Cmax) in the data set “in vivo [7]” of 10.4 ng/mL.
As for `C=CC(=O)NCC1CCNc2c(C(N)=O)c(-c3ccc(Oc4ccccc4)cc3)nn21` (stereo not given), the bioavailability in the data set “in vivo [1]” is 5.7%. This compound also had a half-life in the data set “in vivo [2]” of 12.6 min. Moreover, the AUC in “in vivo [3]” was determined as 51.1 ng·h/mL. The compound also registered a Vd in the data set “in vivo [4]” of 1.19 L/kg. The compound also had a clearance in “in vivo [5]” of 93.9 mL/min/kg. Besides, in the data set “in vivo [6]”, the Tmax was found to be 19.8 min. For the same compound, the peak level in the data set “in vivo [7]” (Cmax) was 19.6 ng/mL.
Take `C=CC(=O)N1CCC[C@@H](n2nc(-c3ccc(Oc4ccccc4)cc3)c3c(N)ncnc32)C1` [IBRUTINIB]: the values for the bioavailability in data set [8] and in [9] were 3.9% and 8.4%, respectively.
For `C=CC(=O)N1CCC([C@@H]2CCNc3c(C(N)=O)c(-c4ccc(Oc5ccccc5)cc4)nn32)CC1` [ZANUBRUTINIB], in the data set “in vivo [1]”, the bioavailability stood at 23.6%. The concentration at 0.5 h in data set [10] is 180 nM; in data set [11], 70 nM; in data set [14], 350 nM; in [15], 590 nM; in [16] it was 320 nM; in data set [17] it was 40 nM. Also, the concentration at 0.5 h in data set [19] was found to be 500 nM; in data set [20] it was 110 nM. For the same compound, the AUC in “in vivo [3]” came to 257 ng·h/mL. In “in vivo [4]”, the Vd was determined as 2.32 L/kg. Moreover, the concentration at 4 h in data set [12] was determined as 90 nM. For the same compound, the Cmax came to 4800 nM in [13] and 235 ng/mL in “in vivo [7]”. Moreover, the clearance in the data set “in vivo [5]” turned out to be 76.8 mL/min/kg. In addition, in “in vivo [6]”, the Tmax was found to be 19.8 min. Further, the concentration at 2 h in [18] was found to be 470 nM.

Values taken from ChEMBL document CHEMBL4414549 (J Med Chem, 2019).
